According to PubChem BioAssay (NCI):
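Assay format: 96-well plates, 48-hour exposure. Here, GI50 denotes the concentration required for 50% inhibition of growth. TGI: concentration producing complete growth inhibition.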

How the values were obtained:
Test in all cases: inhibition of tumour cell growth, NCI panel, 48 h
786-0 renal = tested on: 786-0 renal
A498 renal = tested on: A498 renal
A549 NSCLC = tested on: A549 NSCLC
ACHN renal = tested on: ACHN renal
CCRF-CEM leukemia = tested on: CCRF-CEM leukemia
COLO 205 colon = tested on: COLO 205 colon
DLD-1 colon = tested on: DLD-1 colon
DMS 114 small cell lung = tested on: DMS 114 small cell lung
DMS 273 small cell lung = tested on: DMS 273 small cell lung
EKVX NSCLC = tested on: EKVX NSCLC
HCT-116 colon = tested on: HCT-116 colon
HCT-15 colon = tested on: HCT-15 colon
HL-60(TB) leukemia = tested on: HL-60(TB) leukemia
HOP-18 NSCLC = tested on: HOP-18 NSCLC
HOP-62 NSCLC = tested on: HOP-62 NSCLC
HT29 colon = tested on: HT29 colon
IGROV1 ovarian = tested on: IGROV1 ovarian
K-562 leukemia = tested on: K-562 leukemia
KM12 colon = tested on: KM12 colon
KM20L2 colon = tested on: KM20L2 colon
LOX IMVI melanoma = tested on: LOX IMVI melanoma
LXFL 529 NSCLC = tested on: LXFL 529 NSCLC
M14 melanoma = tested on: M14 melanoma
M19-MEL melanoma = tested on: M19-MEL melanoma
MALME-3M melanoma = tested on: MALME-3M melanoma
MOLT-4 leukemia = tested on: MOLT-4 leukemia
NCI-H23 lung = tested on: NCI-H23 lung
NCI-H460 lung = tested on: NCI-H460 lung
OVCAR-3 ovarian = tested on: OVCAR-3 ovarian
OVCAR-5 ovarian = tested on: OVCAR-5 ovarian
OVCAR-8 ovarian = tested on: OVCAR-8 ovarian
RPMI-8226 leukemia = tested on: RPMI-8226 leukemia
RXF 393 renal = tested on: RXF 393 renal
SF-295 CNS = tested on: SF-295 CNS
SF-539 CNS = tested on: SF-539 CNS
SK-MEL-2 melanoma = tested on: SK-MEL-2 melanoma
SK-MEL-28 melanoma = tested on: SK-MEL-28 melanoma
SK-MEL-5 melanoma = tested on: SK-MEL-5 melanoma
SK-OV-3 ovarian = tested on: SK-OV-3 ovarian
SN12C renal = tested on: SN12C renal
SNB-19 CNS = tested on: SNB-19 CNS
SNB-75 CNS = tested on: SNB-75 CNS
SNB-78 CNS = tested on: SNB-78 CNS
SR leukemia = tested on: SR leukemia
SW-620 colon = tested on: SW-620 colon
TK-10 renal = tested on: TK-10 renal
U251 CNS = tested on: U251 CNS
UACC-257 melanoma = tested on: UACC-257 melanoma
UACC-62 melanoma = tested on: UACC-62 melanoma
UO-31 renal = tested on: UO-31 renal
BT-549 breast = tested on: BT-549 breast
CAKI-1 renal = tested on: CAKI-1 renal
DU-145 prostate = tested on: DU-145 prostate
HCC-2998 colon = tested on: HCC-2998 colon
HOP-92 NSCLC = tested on: HOP-92 NSCLC
HS 578T breast = tested on: HS 578T breast
MCF7 breast = tested on: MCF7 breast
MDA-MB-231 breast = tested on: MDA-MB-231 breast
MDA-MB-435 = tested on: MDA-MB-435
MDA-N = tested on: MDA-N
NCI-H226 lung = tested on: NCI-H226 lung
NCI-H522 lung = tested on: NCI-H522 lung
NCI/ADR-RES ovarian = tested on: NCI/ADR-RES ovarian
OVCAR-4 ovarian = tested on: OVCAR-4 ovarian
PC-3 prostate = tested on: PC-3 prostate
SF-268 CNS = tested on: SF-268 CNS
T-47D breast = tested on: T-47D breast

## CN(C)CC/C(=N\Nc1ccc(Cl)cc1Cl)c1ccccc1
786-0 renal
  TGI: 27.5 µM
A498 renal
  TGI: 30.1 µM
A549 NSCLC
  TGI: 29.6 µM
ACHN renal
  TGI: 29.4 µM
CCRF-CEM leukemia
  TGI: 31.2 µM
COLO 205 colon
  TGI: 29.2 µM
DLD-1 colon
  TGI: 23.8 µM
DMS 114 small cell lung
  TGI: 27.6 µM
DMS 273 small cell lung
  TGI: 27 µM
EKVX NSCLC
  TGI: 43.1 µM
HCT-116 colon
  TGI: 27.9 µM
HCT-15 colon
  TGI: 24.9 µM
HL-60(TB) leukemia
  TGI: 21.6 µM
HOP-18 NSCLC
  TGI: 28.7 µM
HOP-62 NSCLC
  TGI: 30.3 µM
HT29 colon
  TGI: 28.9 µM
IGROV1 ovarian
  TGI: 22.8 µM
K-562 leukemia
  TGI: 33.4 µM
KM12 colon
  TGI: 31.2 µM
KM20L2 colon
  TGI: 27.5 µM
LOX IMVI melanoma
  TGI: 28 µM
LXFL 529 NSCLC
  TGI: 25.9 µM
M14 melanoma
  TGI: 29.1 µM
M19-MEL melanoma
  TGI: 31.5 µM
MALME-3M melanoma
  TGI: 49.7 µM
MOLT-4 leukemia
  TGI: 42 µM
NCI-H23 lung
  TGI: 31.6 µM
NCI-H460 lung
  TGI: 28.3 µM
OVCAR-3 ovarian
  TGI: 27 µM
OVCAR-5 ovarian
  TGI: 30.7 µM
OVCAR-8 ovarian
  TGI: 34.9 µM
RPMI-8226 leukemia
  TGI: 17.1 µM
RXF 393 renal
  TGI: 20.6 µM
SF-295 CNS
  TGI: 32.9 µM
SF-539 CNS
  TGI: 35 µM
SK-MEL-2 melanoma
  TGI: 28.6 µM
SK-MEL-28 melanoma
  TGI: 28.5 µM
SK-MEL-5 melanoma
  TGI: 27.9 µM
SK-OV-3 ovarian
  TGI: 24.8 µM
SN12C renal
  TGI: 25.1 µM
SNB-19 CNS
  TGI: 30 µM
SNB-75 CNS
  TGI: 20.9 µM
SNB-78 CNS
  TGI: 27.6 µM
SR leukemia
  TGI: 32.3 µM
SW-620 colon
  TGI: 29.5 µM
TK-10 renal
  TGI: 28.3 µM
U251 CNS
  TGI: 24.8 µM
UACC-257 melanoma
  TGI: 30.1 µM
UACC-62 melanoma
  TGI: 27.7 µM
UO-31 renal
  TGI: 10.5 µM

## CC(=C/c1ccccc1)/C=C1/NC(=S)N(/C=C2\C(=O)Oc3ccccc3C2=O)C1=O
786-0 renal
  GI50: 57.6 µM
  TGI: > 100 µM
A498 renal
  TGI: > 100 µM
A549 NSCLC
  TGI: > 100 µM
ACHN renal
  TGI: > 100 µM
BT-549 breast
  GI50: 36.8 µM
  TGI: > 100 µM
CAKI-1 renal
  GI50: 59.7 µM
  TGI: > 100 µM
CCRF-CEM leukemia
  TGI: > 100 µM
COLO 205 colon
  TGI: > 100 µM
DU-145 prostate
  TGI: > 100 µM
EKVX NSCLC
  TGI: > 100 µM
HCC-2998 colon
  TGI: > 100 µM
HCT-116 colon
  TGI: > 100 µM
HCT-15 colon
  TGI: > 100 µM
HL-60(TB) leukemia
  TGI: > 100 µM
HOP-62 NSCLC
  TGI: > 100 µM
HOP-92 NSCLC
  TGI: > 65 µM
HS 578T breast
  GI50: > 100 µM
  TGI: > 100 µM
HT29 colon
  GI50: > 100 µM
  TGI: > 100 µM
IGROV1 ovarian
  GI50: 86.7 µM
  TGI: > 100 µM
K-562 leukemia
  TGI: > 100 µM
KM12 colon
  TGI: > 100 µM
LOX IMVI melanoma
  TGI: > 100 µM
M14 melanoma
  TGI: > 100 µM
MALME-3M melanoma
  GI50: > 100 µM
  TGI: > 100 µM
MCF7 breast
  TGI: > 100 µM
MDA-MB-231 breast
  TGI: > 100 µM
MDA-MB-435
  TGI: > 100 µM
MDA-N
  TGI: > 100 µM
MOLT-4 leukemia
  TGI: > 100 µM
NCI-H226 lung
  TGI: > 100 µM
NCI-H23 lung
  TGI: > 100 µM
NCI-H460 lung
  TGI: > 100 µM
NCI-H522 lung
  TGI: > 90.5 µM
NCI/ADR-RES ovarian
  TGI: > 100 µM
OVCAR-3 ovarian
  TGI: > 100 µM
OVCAR-4 ovarian
  TGI: > 100 µM
OVCAR-5 ovarian
  TGI: > 100 µM
OVCAR-8 ovarian
  TGI: > 100 µM
PC-3 prostate
  TGI: > 100 µM
RPMI-8226 leukemia
  TGI: > 100 µM
RXF 393 renal
  TGI: > 52.4 µM
SF-268 CNS
  TGI: > 100 µM
SF-295 CNS
  TGI: > 100 µM
SF-539 CNS
  TGI: > 100 µM
SK-MEL-2 melanoma
  TGI: > 100 µM
SK-MEL-28 melanoma
  TGI: > 100 µM
SK-MEL-5 melanoma
  TGI: > 86.9 µM
SK-OV-3 ovarian
  GI50: > 100 µM
  TGI: > 100 µM
SN12C renal
  TGI: > 100 µM
SNB-19 CNS
  TGI: > 100 µM
SNB-75 CNS
  TGI: > 100 µM
SR leukemia
  TGI: > 100 µM
SW-620 colon
  GI50: > 100 µM
  TGI: > 100 µM
T-47D breast
  TGI: > 100 µM
TK-10 renal
  TGI: > 100 µM
U251 CNS
  TGI: > 100 µM
UACC-257 melanoma
  TGI: > 100 µM
UACC-62 melanoma
  GI50: 40.7 µM
  TGI: > 100 µM
UO-31 renal
  GI50: 91.7 µM
  TGI: > 100 µM
